Here are results for 26 compounds from patent publication US7026357B2, “Diphenylurea compounds” (Les Laboratoires Servier, priority 2000, dated 2006).

System in the first series: not given
Test: not given
Conditions: not given
Usually melting point stands for the temperature of the solid-liquid transition. As to `Cc1ccc(NC(=O)Nc2cccc(CCc3c[nH]cn3)c2)cc1Cl.Cl`, the melting point was in the range of 237 to 239 °C.

Compound `COc1ccc(NC(=O)Nc2ccc(F)c(Cl)c2)cc1N1CCN(CC2COc3ccccc3O2)CC1.Cl` (centres unmarked) showed a melting point of 120 to 130 °C.

`Cc1ccc(NC(=O)Nc2cccc(N3CCN(CC4COc5ccccc5O4)CC3)c2)cc1C.Cl` (centres unmarked) came in with a melting point of 228 to 230 °C.

`Cc1ccc(NC(=O)Nc2ccc(C)c(NC3=NCCN3)c2)cc1Cl.Cl` registered a melting point of 252 to 254 °C.

`Cc1ccc(NC(=O)Nc2ccc(C)c(N3CCN(C)CC3)c2)cc1Cl.Cl`: the melting point lay in the range of 229 to 231 °C.

Turning to `Cc1ccc(NC(=O)Nc2ccc3c(c2)C(c2c[nH]cn2)CCC3)cc1Cl.Cl` (centres unmarked), the melting point was in the range of 255 to 257 °C.

`Cc1ccc(NC(=O)Nc2cccc(N3CCN(CC4COc5ccccc5O4)CC3)c2)cc1Cl.Cl` (centres unmarked) [Example 6, N-(3-Chloro-4-methylphenyl)-N′-{3-[4-(2,3-dihydro-1,4-benzodioxin-2-ylmethyl)-1-piperazinyl]phenyl}urea hydrochloride] displayed a melting point of 180 to 185 °C.

`COc1ccc(NC(=O)Nc2ccc(C)c(Cl)c2)cc1N1CCN(CC2COc3ccccc3O2)CC1.Cl` (centres unmarked): the melting point lay in the range of 193 to 197 °C.

The compound `Cc1ccc(NC(=O)Nc2cccc(C(C)(C)C3=NCCN3)c2)cc1Cl.Cl` gave a melting point of 232 to 233 °C.

As for `Cc1ccc(NC(=O)Nc2cccc(NC3=NCCN3)c2)cc1Cl.Cl`, the melting point lay in the range of 180 to 185 °C.

For the compound `CSc1ccc(NC(=O)Nc2ccc3c(c2)CC(c2c[nH]cn2)C3)cc1.Cl` (centres unmarked), the melting point lay within 243 to 245 °C.

Compound `Cc1ccc(NC(=O)Nc2ccc(Cl)c(NC3=NCCN3)c2)cc1Cl.Cl` showed a melting point of 255 to 257 °C.

Consider `Cc1ccc(NC(=O)Nc2ccc3c(c2)C(c2c[nH]cn2)CCO3)cc1Cl.Cl` (centres unmarked), for which the melting point was > 260 °C.

In turn, `Cc1ccc(NC(=O)Nc2cccc(CC3=NCCN3)c2)cc1Cl.Cl` gave a melting point of 227 to 229 °C.

As to `COc1ccc(NC(=O)Nc2ccc(C)c(Cl)c2)cc1N1CCN(C)CC1.Cl`, the melting point was 206 to 208 °C.

`Cc1ccc(NC(=O)Nc2ccc3c(c2)CC(c2c[nH]cn2)CC3)cc1Cl.Cl` (centres unmarked) showed a melting point of 206 to 208 °C.

For `Cl.O=C(Nc1cccc(N2CCN(CC3COc4ccccc4O3)CC2)c1)Nc1ccc(F)c(Cl)c1` (centres unmarked), the melting point is 132 to 136 °C.

Consider `Cl.Cl.O=C(Nc1cccc(N2CCN(CC3COc4ccccc4O3)CC2)c1)N1CCc2cc(F)c(Cl)cc21` (centres unmarked), for which the melting point lay in the range of 202 to 204 °C.

As for `Cc1ccc(NC(=O)Nc2ccc3c(c2)CC(c2c[nH]cn2)C3)cc1Cl.Cl` (centres unmarked), the melting point was 235 to 237 °C.

`Cc1ccc(NC(=O)Nc2ccc3c(c2)CN(C2=NCCN2)CC3)cc1Cl.Cl`: the melting point lay within 237 to 239 °C.

`Cc1ccc(NC(=O)Nc2ccc3c(c2)CC(c2c[nH]cn2)C3)cc1C.Cl` (centres unmarked) yielded a melting point of 232 to 234 °C.

Compound `COc1ccc(NC(=O)Nc2ccc(C)c(C)c2)cc1N1CCN(CC2COc3ccccc3O2)CC1.Cl.Cl` (centres unmarked) displayed a melting point of 234 to 236 °C.

Compound `Cl.Cl.O=C(Nc1cccc(N2CCN(CC3COc4ccccc4O3)CC2)c1)N1CCc2c1ccc1ccccc21` (centres unmarked) yielded a melting point of 194 to 196 °C.

Turning to `Cc1ccc(NC(=O)Nc2cccc(CCC3=NCCN3)c2)cc1Cl.Cl`, the melting point was 212 to 214 °C.

`Cc1cc2c(cc1Cl)N(C(=O)Nc1ccc(N3CCN(CC4COc5ccccc5O4)CC3)cc1)CC2.Cl.Cl` (centres unmarked) showed a melting point of 174 to 176 °C.

The compound `Cc1ccc(NC(=O)Nc2cccc(C(C)C3=NCCN3)c2)cc1Cl.Cl` (centres unmarked) registered a melting point of 100 to 102 °C.

The next series deals with Male NMRI mice. In words: Marble-burying test in the mouse. The class given is in vivo. Particulars: 0.5 h, 24 marbles, 30 minutes' free exploration, read-out: effective dose 50 (ED50), inhibition of marble-burying. From the text: This test allows evaluation of the capacity of pharmacological agents to inhibit the spontaneous marble-burying behaviour in mice, the inhibition being predictive of antidepressant and/or anti-impulsive action. Male NMRI mice weighing from 20 to 25 g on the day of the experiment are placed individually in Macrolon boxes containing 5 cm of sawdust and covered with a perforated plexiglass plate. Twenty four “tiger's eye” glass marbles are evenly distributed on the sawdust at the periphery of the box. At the end of 30 minutes' free exploration, the animals are removed from the box and the number of buried marbles is counted.
The term ED50 denotes the dose that gives a 50% effect, or the effect in half of the subjects. Regarding `Cc1ccc(NC(=O)Nc2cccc(N3CCN(CC4COc5ccccc5O4)CC3)c2)cc1Cl.Cl` (centres unmarked) [Example 6, N-(3-Chloro-4-methylphenyl)-N′-{3-[4-(2,3-dihydro-1,4-benzodioxin-2-ylmethyl)-1-piperazinyl]phenyl}urea hydrochloride], the ED50 is 0.4 mg/kg.

The target of a further series is T1, 5-HT2c receptors (Rattus norvegicus, UniProt P08909).
T1 construct: Male Wistar rats weighing from 120 to 140 g on the day of the experiment; from tissue; host or cells: whole animal (male Wistar rat), endogenous receptor
T1 sequence (P08909 33-460): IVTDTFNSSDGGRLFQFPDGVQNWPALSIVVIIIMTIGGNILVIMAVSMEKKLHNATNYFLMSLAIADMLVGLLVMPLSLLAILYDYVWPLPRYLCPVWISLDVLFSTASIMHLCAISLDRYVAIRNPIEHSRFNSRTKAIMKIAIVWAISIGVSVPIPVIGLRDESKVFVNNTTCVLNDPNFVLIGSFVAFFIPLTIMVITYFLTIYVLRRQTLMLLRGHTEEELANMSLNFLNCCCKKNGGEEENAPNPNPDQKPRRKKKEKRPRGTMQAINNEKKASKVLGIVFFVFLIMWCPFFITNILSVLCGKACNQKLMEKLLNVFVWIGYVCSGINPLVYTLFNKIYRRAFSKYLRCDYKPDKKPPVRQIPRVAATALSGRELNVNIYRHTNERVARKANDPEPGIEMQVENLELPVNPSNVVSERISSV
Kind of series: Penile erection test in the rat (erections induced by RO 60-0175). Format: in vivo. As to conditions: male Wistar rats; RO 60-0175 1.25 mg/kg s.c. 30 min after test compound; erections counted during 30 minutes. The method, then:
The test allows the evaluation of the capacity of pharmacological agents to inhibit penile erections caused by the administration of a 5-HT2c selective agonist, RO 60-0175.
Male Wistar rats weighing from 120 to 140 g on the day of the experiment are placed individually into plexiglass observation boxes immediately after having been administered the test compound or the carrier. Thirty minutes later, the animals are administered RO 60-0175 (1.25 mg/kg, subcutaneous route) and the number of erections that occur during the 30 minutes that follow is counted.
Turning to `Cc1ccc(NC(=O)Nc2cccc(N3CCN(CC4COc5ccccc5O4)CC3)c2)cc1Cl.Cl` (centres unmarked) [Example 6, N-(3-Chloro-4-methylphenyl)-N′-{3-[4-(2,3-dihydro-1,4-benzodioxin-2-ylmethyl)-1-piperazinyl]phenyl}urea hydrochloride], the “inhibitory dose 50 (ID50), inhibition of penile erections” value amounted to 0.7 mg/kg.

The subject of another series is male CD-1 mice. In words: Test in the mouse of aggressiveness induced by isolation. Format: in vivo. As to conditions: isolated male CD-1 mice; subcutaneous administration; 30 minutes before test; three minutes observation. From the text:
The animals used are male CD-1 mice. On arrival, the mice are isolated in individual cages with free access to food and drink. After a period of isolation of one month, pairs of mice that are constant in their aggressiveness are selected by observation of the latent period, the number and the duration of attacks when they are placed in each other's presence. The test takes place once a week. On the day of the test, each mouse of the pair of mice (resident mouse and intruder mouse) is given a subcutaneous injection of carrier (control animals) or of test product (treated animals) in a volume of 10 ml/kg. After 30 minutes, the intruder mouse is introduced into the cage of the resident mouse. The latent period of the first attack and the number and duration of attacks are then measured for a period of three minutes. A product is considered as specifically anti-aggressive when it reduces the number and the duration of attacks at non-sedative doses.
Take `Cc1ccc(NC(=O)Nc2cccc(N3CCN(CC4COc5ccccc5O4)CC3)c2)cc1Cl.Cl` (centres unmarked) [Example 6, N-(3-Chloro-4-methylphenyl)-N′-{3-[4-(2,3-dihydro-1,4-benzodioxin-2-ylmethyl)-1-piperazinyl]phenyl}urea hydrochloride]: the “inhibitory dose 50 (ID50), number and duration of attacks” value stood at 2.5 mg/kg.
